# Results taken from PMC6212493, “Development and evaluation of a novel series of Nitroxoline-derived BET inhibitors with antitumor activity in renal cell carcinoma” (Oncogenesis, 2018).
# “Also recorded” adds a separate entry of the source.
# Experiments:
# BRD4-BD1 = biological target: T1, BRD4-BD1 (Homo sapiens, UniProt O60885); experiment: ALPHA screen assay, displacement of BRD4-BD1 from acetylated H4 peptide; format: binding
# T1 construct: with the first bromodomain of BRD4 (BRD4-BD1) were solved; 6xHis (N); made in house; host or cells: Escherichia coli BL21 (DE3)
# Protocol: (§1) Amplified Luminescent Proximity Homogeneous Assay (ALPHA) screen assay was used to determine the IC50 of compounds for competitive displacement of BRD4_BD1 from the acetylated H4 peptide. As previously described, 2.5 μL compounds and 2.5 μL proteins were added into each well of 384-well plates and incubated at room temperature for 15 min. To start the reaction, 5 μL substrate peptide was added and incubated at room temperature for 5 min. Subsequently, 5 µL nickel-chelate acceptor beads (PerkinElmer) and 5 µL streptavidin-conjugate donor beads (PerkinElmer) were added. After 60 min incubation at room temperature, data were collected by EnVision (PerkinElmer) and analyzed using GraphPad Prism 5.0.
# RCTEC normal cell line = experiment: Viability of normal cells, RCTEC; format: cell-based; details: at similar concentrations as RCC cells
# Protocol: (§2) RCC cells 786-O, 769-P, A498, and ACHN were purchased from ATCC. All the cells were authenticated by STR profiling at Genesky Biopharma Technology and tested for Mycoplasma contamination. […] For the viability assay, cells were plated on 96-well plates at the density of 0.5–1 × 10^3/well. After cell attachment, various concentrations of compounds and DMSO were added, the plates were incubated for 7 days. After the addition of 10 μL Alamar Blue and incubation for 3 h at 37 °C, fluorescent signals were measured with a PE Envision reader, at the wavelength of 544 nm for excitation and 590 nm for emission. Finally, the percentages of viability were calculated by normalizing against the control.
# [1] = tested on: c-Myc, Bcl-2, and CDK6 mRNA expression; experiment: Real-time PCR of BET downstream genes in RCC cells; format: cell-based; details: relative to DMSO control, normalized to β2-microglobulin
# Protocol: Trizol reagent (Vazyme) was used to extract total RNA of ccRCC tumor samples or cells following manufacturer’s instructions. Synthesis of complementary DNA (cDNA) was done using the HiScript® II RT SuperMix (Vazyme). StepOnePlus (Life Technologies) apparatus was applied to carry out quantitative real-time PCR (qPCR). Gene-specific data were normalized to β2-microglobulin and are calculated as relative expression compared to DMSO or control group using the ΔΔCT method.
# Caki cells = experiment: Alamar Blue viability assay, Caki; format: cell-based; details: 168 h, treatment for 7 days, read-out: IC50, cell viability
# [2] = tested on: c-Myc, Bcl-2, Bax, cleaved-PARP, cleaved-Caspase3 protein abundance; experiment: Western blot of BET downstream and apoptosis proteins in RCC cells; format: cell-based; details: immunoblot
# Protocol: Protein lysates from tissue samples were obtained using RIPA buffer supplemented with protease and phosphatase inhibitors. For the cellular samples, cells were collected following treatment with DMSO and compounds. Western blot was performed as previously described.[25] The primary antibodies were BRD2 (A302-583A, Bethyl), BRD3 (A302-368A, Bethyl), BRD4 (A301-985A, Bethyl), MYC (sc-40, Santa Cruz Biotechnology), BCL2 (ab7973, Abcam), BAX (ab32503, Abcam), cleaved PARP (Cell Signaling, #5625). The secondary antibodies were anti-rabbit IgG (Jackson, 111-035-003) or anti-mouse IgG (Jackson). HRP substrate (GE Healthcare) was used for the detection of chemical luminescence, and FUJIFILM LAS-4000 was used for image acquisition.
# A498 cells = experiment: Alamar Blue viability assay, A498; format: cell-based; details: Homo sapiens, 168 h; A498, treatment for 7 days; read-out: IC50, cell viability
# Protocol: as §2
# BET family proteins = experiment: In vitro selective assay at 3 μM, BET proteins; format: binding
# Protocol: (§3) First, we compared the inhibitory activity of BDF-1253 to displace BRD4-BD1 or BRD4-BD2 domain from acetylated H4 peptide using ALPHA assay. […] An in vitro selective assay was also conducted to examine the effect of BDF-1253 at 3 μM on the other BET proteins, other BRD proteins out of BET family (SMACAR, BPTF, PCAF) as well as several epigenetic enzymes.
# (§4) Determination of inhibition against BET family members, bromodomain proteins out of the BET family as well as several epi-enzymes by BDF-1253 at 3 μM.
# BRD4-BD2 = BRD4-BD2 (Homo sapiens, UniProt O60885); experiment: ALPHA assay, displacement of BRD4-BD2 from acetylated H4 peptide; format: binding
# Protocol: as §3, §1
# IC50 determination of BDF-1253 against BRD4-BD1 and BRD4-BD2 using Alpha Screen method.
# ACHN cells = experiment: Alamar Blue viability assay, ACHN; format: cell-based; details: Homo sapiens, 168 h, treatment for 7 days, read-out: IC50, cell viability
# Protocol: as §2
# [3] = tested on: non-BET BRD-containing proteins (SMACAR, BPTF, PCAF) and epigenetic enzymes; experiment: In vitro selective assay at 3 μM, non-BET bromodomain proteins and epi-enzymes; format: biochemical
# Protocol: as §3, §4
# HUVEC normal cell line = experiment: Viability of normal cells, HUVEC; format: cell-based; details: at similar concentrations as RCC cells
# 786-O xenograft tumor = experiment: RCC xenograft mice model (786-O); format: in vivo, nude mice; details: 50 mg/kg intraperitoneally daily
# Protocol: All animal experiments were approved by IACUC (Institutional Animal Care and Use Committee) of Shanghai Institute of Materia Medica. Four to six-week-old female nude mice purchased from Silaike Laboratory Animal Ltd. were subcutaneously inoculated with 5 × 10^6 786-O cells in 100 μL PBS. All nude mice were raised under pathogen-free conditions to achieve tumor growth. Sample size of each group (n = 7) was chosen following the instruction by http://www.biomath.info. As long as the tumor sizes reached palpable stage, the mice were randomly divided into two groups (n = 7/group). One group is for compound BDF-1253 treatment trials and the other group is the control group. […] These mice were treated intraperitoneally with either diluted compound BDF-1253 of 50 mg/kg or vehicle on a daily basis. Tumor volume was evaluated every 3 days using Vernier calipers and calculated with the equation: length × width^2 × 0.5. Animals were killed when their tumors reached 2 cm^3.
# 786-O cells = experiment: Alamar Blue viability assay, 786-O; format: cell-based
# Protocol: as §2
Structure (SMILES),IC50 (BRD4-BD1) [nM],inhibition of normal cell viability (RCTEC normal cell line),"mRNA expression levels of c-Myc, Bcl-2, and CDK6 (BET target gene transcription) [1]",IC50 (Caki cells) [nM],PRAP and Caspase3 cleavage and expression of pro-apoptotic protein Bax [2],"protein abundance of c-Myc, Bcl-2 (BRD4 downstream effectors) [2]",IC50 (A498 cells) [nM],effect on BET family proteins (BET family proteins),selectivity for BRD4-BD1 or BRD4-BD2 domain (BRD4-BD2),IC50 (ACHN cells) [nM],effect on non-BET BRD-containing proteins or other epigenetic enzymes [3],inhibition of normal cell viability (HUVEC normal cell line),c-Myc expression in tumors (immunoblotting) (786-O xenograft tumor),"tumor size (786-O xenograft tumor; 21 days, 786-O xenograft)",body weight / toxicity (786-O xenograft tumor; during dosing),"IC50 (786-O cells; Homo sapiens, 786-0, 168 h, 786-O, treatment for 7 days, read-out: IC50, cell viability) [nM]","effect on RCC cell proliferation (786-O cells; RCC 786-o cells, in words)"
O=[N+]([O-])c1ccc(O)c2ncccc12 [Nitroxoline],980,–,–,–,–,–,–,–,–,–,–,–,–,–,–,–,–
CC(=O)Nc1cc(Cn2ccnc2)c2cccc(O)c2n1 [BDF-1253],287,little inhibition,inhibited expression; also recorded: dose-dependently decreased,3570,increased PRAP and Caspase3 cleavage and elevated expression of pro-apoptotic protein Bax,"reduced after the treatment, in a dose-dependent manner",1390,selectively inhibited BET family proteins,no obvious selectivity,2070,minimal effects,little inhibition,reduced,remarkable reduction in tumor size,no obvious loss of body weight or toxicity,1510,inhibited the proliferation
